Data on 6 compounds can be found in patent US8735397B2, “Method for treating schizophrenia and related diseases” (Vanderbilt University, priority 2010, dated 2014).

The structures appear in SMILES notation. Entries after “also recorded” stand apart in the source; their conditions may differ. Structures can show the parent of a compound that is named as a salt.

Test [1] deals with PCP-induced NOR deficits in sub-chronic PCP treated rats. Nature of the test: Novel object recognition (NOR) test after subchronic PCP treatment. In kind it is in vivo, Female Long-Evans rats. Conditions: for Acquisition (sec) Left, exploration time / Acquisition (sec) Right, exploration time / Retention (sec) Familiar, exploration time / Retention (sec) Novel, exploration time: mean±SEM; for Effective dose for reversing PCP-induced NOR deficits / Sub-effective dose in PCP-induced NOR deficit: single agent, acute administration after subchronic PCP. How it is done: Female Long-Evans rats received vehicle or PCP (2 mg/kg, i.p.) twice daily for 7 days, followed by a 7-day washout period (n=6-9/group). Phencyclidine (PCP) which is known to induce schizophrenia-like symptoms in human normal subjects and to exacerbate symptoms in patients with schizophrenia was dissolved in distilled water and administered in a volume of 1 ml/kg.
On the test day, in the first set of experiments, lurasidone HCl (0.03 and 0.1 mg/kg; produced by Dainippon Sumitomo Pharma Co., Ltd.), clozapine (0.3 mg/kg), LY379268 (1 mg/kg; Tocris Bioscience) alone, or haloperidol (0.1 mg/kg), pimavanserin (3 mg/kg), lurasidone HCl (0.03 mg/kg), clozapine (0.1 mg/kg) in combination with LY379268 (1 mg/kg) were administered intraperitoneally in a volume of 1 ml/kg, 30 min before the novel object recognition (NOR) test. In the second set of experiments, LY404039 (1 mg/kg; produced by Dainippon Sumitomo Pharma Co., Ltd.) alone was orally administered in a volume of 4 ml/kg 60 min before the novel object recognition (NOR) test. For combination with lurasidone HCl, LY404039 (1 mg/kg, p.o.) and lurasidone HCl (0.03 mg/kg, i.p.) were administered 60 min and 30 min before the novel object recognition (NOR) test, respectively. In the third set of experiments, BINA (30 mg/kg; produced by Dainippon Sumitomo Pharma Co., Ltd.) alone or BINA (30 mg/kg) in combination with lurasidone HCl (0.03 mg/kg) was administered intraperitoneally in a volume of 1 ml/kg 30 min before the novel object recognition (NOR) test.
Haloperidol, pimavanserin, and LY404039 were dissolved in distilled water. Lurasidone HCl was dissolved 0.5% methylcellulose, 0.2% Tween 80. Clozapine was dissolved in a small amount of 0.1 M phosphoric acid, and the pH was adjusted to 6 to 7 with 0.1 N NaOH. LY379268 was dissolved in saline. BINA was dissolved in 10% Tween 80, 10% 1N NaOH, and the pH was adjusted to 7 with 1N HCl.
The object recognition test was performed in an open field comprising a square box made of Plexiglas (52/52/31 cm) placed 37 cm above the floor on an immoveable stand. The floor of the box was white with black gridlines forming nine identical squares on it. All other walls were black. A video camera connected to a video recorder and monitor was positioned above the box. The objects used for the test consisting of four heavy pyramidal structures made of metal or Perspex that could not be displaced by the animals. Care was taken to ensure that these objects were not of any natural significance to the rats.
Testing was carried out according to a previously validated method (Grayson et al., Behay. Brain Res. 2007 184, 31-38; Snigdha et al., J. Pharmacol. Exp. Ther., 2010 332 (2), 622-31). The rats were familiarized to the test environment and NOR arena before the test day. Habituation consisting of placing the subjects in the empty NOR arena for 1 h, on the day before the test day (day 1). Before behavioral testing on day 2, rats were given a further 3-min habituation. For each experimental trial after the 3-min habituation period, the rats were given two 3-min trials (T1 and T2), separated by a 1-min intertrial interval in the home cage during which the objects were changed and the arena was cleaned. In Trial 1 (T1) or the acquisition trial, the animals were allowed to explore two identical objects (A1 and A2) for 3 min. In the second trial (T2) or the retention trial, the animals explored a familiar object (A) from T1 and a novel object (B) for 3 min. The familiar object presented during T2 was a duplicate of the object presented in T1 to avoid any olfactory trails. Each rat was tested three or four times in the NOR paradigm. To reduce carryover effects, a 7-day washout period was given between each of the test sessions. The criterion for continuing to test the rats was based on mean total exploration time in the acquisition or retention phase 5 seconds. […] This happened rarely and not enough to affect the ability to use the remaining animals for analysis. […]

In a further test the target is dopamine D2 receptor (Homo sapiens, UniProt P14416). The note with it: cited from earlier work.
Test [2] concerns the target T1, serotonin 5-HT1A receptor (Homo sapiens, UniProt P08908).
T1 sequence (P08908 1-422): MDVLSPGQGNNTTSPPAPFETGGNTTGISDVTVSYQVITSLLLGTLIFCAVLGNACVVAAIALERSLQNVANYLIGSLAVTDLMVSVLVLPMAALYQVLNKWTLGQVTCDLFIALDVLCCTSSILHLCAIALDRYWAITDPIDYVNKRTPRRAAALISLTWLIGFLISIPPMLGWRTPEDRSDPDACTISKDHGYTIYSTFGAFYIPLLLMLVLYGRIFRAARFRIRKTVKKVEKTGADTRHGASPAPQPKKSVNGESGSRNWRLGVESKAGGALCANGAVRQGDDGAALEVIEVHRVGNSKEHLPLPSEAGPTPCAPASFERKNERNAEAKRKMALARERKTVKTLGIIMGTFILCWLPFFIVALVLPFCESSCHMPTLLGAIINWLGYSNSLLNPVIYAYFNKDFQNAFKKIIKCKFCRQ
The note with it: cited from earlier work.

Test [3] addresses serotonin 5-HT2A receptor (Homo sapiens, UniProt P28223). The note with it: cited from earlier work.
In a further test the target is serotonin 5-HT7 receptor (Homo sapiens, UniProt P34969). The note with it: cited from earlier work.
Test [4] has as its target T2, noradrenaline α2C receptor (Homo sapiens, UniProt P18825).
T2 sequence (P18825 1-462): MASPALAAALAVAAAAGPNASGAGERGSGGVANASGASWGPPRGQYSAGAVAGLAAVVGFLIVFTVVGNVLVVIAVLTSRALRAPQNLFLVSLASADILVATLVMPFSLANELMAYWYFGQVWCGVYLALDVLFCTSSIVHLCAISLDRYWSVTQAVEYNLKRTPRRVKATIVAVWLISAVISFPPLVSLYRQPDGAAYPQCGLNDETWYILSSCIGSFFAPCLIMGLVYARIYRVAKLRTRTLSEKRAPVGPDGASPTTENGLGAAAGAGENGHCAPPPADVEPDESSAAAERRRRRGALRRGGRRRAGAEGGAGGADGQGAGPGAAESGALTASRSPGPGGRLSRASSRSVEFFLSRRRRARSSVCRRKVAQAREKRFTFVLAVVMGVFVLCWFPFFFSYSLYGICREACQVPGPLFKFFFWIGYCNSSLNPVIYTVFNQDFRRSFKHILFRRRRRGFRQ
The note with it: cited from earlier work.

Another test has as its target histamine H1 receptor (Homo sapiens, UniProt P35367). Conditions: cited from earlier work.
The target in a further test is T3, muscarinic M1 receptor (Homo sapiens, UniProt P11229).
T3 sequence (P11229 1-460): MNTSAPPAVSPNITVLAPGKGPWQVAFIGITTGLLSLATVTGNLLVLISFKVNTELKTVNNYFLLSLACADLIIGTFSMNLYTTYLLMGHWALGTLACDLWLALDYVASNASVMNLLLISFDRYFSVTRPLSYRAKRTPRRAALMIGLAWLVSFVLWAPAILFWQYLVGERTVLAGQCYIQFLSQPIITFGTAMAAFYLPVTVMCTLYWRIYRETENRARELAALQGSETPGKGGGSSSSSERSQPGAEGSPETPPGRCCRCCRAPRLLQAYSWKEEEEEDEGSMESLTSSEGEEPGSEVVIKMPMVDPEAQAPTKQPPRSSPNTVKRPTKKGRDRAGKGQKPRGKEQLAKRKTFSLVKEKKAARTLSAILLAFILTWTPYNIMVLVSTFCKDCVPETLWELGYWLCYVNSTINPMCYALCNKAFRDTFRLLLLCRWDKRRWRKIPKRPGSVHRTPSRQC
Conditions: cited from earlier work.

[5] abbreviates: PCP + BINA 30 mg/kg i.p. 30 min before NOR, n=7 to 9.
Setting [6] is: PCP + clozapine 0.1 mg/kg, n=6 to 8.
Setting [7] is: PCP + clozapine 0.3 mg/kg i.p. 30 min before NOR, n=6 to 8.
Where [8] appears, read: PCP + LY379268 1 mg/kg i.p. 30 min before NOR, n=6 to 8.
[9] abbreviates: PCP + LY404039 1 mg/kg p.o. 60 min before NOR, n=7 to 8.
Setting [10] is: PCP + lurasidone HCl 0.03 mg/kg i.p. 30 min before NOR, n=7 to 8.
Where [11] appears, read: PCP + lurasidone HCl 0.1 mg/kg i.p. 30 min before NOR, n=7 to 8.

serotonin 5-HT7 receptor, sequence (P34969 whole entry): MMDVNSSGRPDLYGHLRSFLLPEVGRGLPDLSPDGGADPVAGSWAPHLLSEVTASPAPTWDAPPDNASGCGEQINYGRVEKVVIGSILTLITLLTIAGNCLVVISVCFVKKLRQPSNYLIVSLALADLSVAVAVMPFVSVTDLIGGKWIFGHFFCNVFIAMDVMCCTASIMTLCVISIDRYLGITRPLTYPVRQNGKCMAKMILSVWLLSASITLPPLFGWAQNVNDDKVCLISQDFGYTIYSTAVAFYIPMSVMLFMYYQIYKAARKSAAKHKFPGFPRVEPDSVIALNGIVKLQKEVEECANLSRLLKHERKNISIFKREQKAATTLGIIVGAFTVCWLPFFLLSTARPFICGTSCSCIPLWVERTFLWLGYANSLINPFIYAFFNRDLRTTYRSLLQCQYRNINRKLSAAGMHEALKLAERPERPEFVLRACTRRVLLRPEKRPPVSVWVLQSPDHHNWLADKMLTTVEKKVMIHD
dopamine D2 receptor, sequence (P14416 whole entry): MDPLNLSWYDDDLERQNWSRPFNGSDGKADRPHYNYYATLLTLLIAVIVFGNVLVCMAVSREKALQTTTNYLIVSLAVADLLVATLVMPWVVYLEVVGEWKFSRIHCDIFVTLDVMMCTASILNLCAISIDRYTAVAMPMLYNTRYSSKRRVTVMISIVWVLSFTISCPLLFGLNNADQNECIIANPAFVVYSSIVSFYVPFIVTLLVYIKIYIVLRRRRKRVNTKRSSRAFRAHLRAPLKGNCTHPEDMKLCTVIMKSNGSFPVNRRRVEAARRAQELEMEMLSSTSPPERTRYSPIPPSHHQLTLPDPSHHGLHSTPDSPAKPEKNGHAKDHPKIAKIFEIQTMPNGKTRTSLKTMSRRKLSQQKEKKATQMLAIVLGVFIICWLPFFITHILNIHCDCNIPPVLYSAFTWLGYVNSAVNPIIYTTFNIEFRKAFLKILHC
histamine H1 receptor, sequence (P35367 whole entry): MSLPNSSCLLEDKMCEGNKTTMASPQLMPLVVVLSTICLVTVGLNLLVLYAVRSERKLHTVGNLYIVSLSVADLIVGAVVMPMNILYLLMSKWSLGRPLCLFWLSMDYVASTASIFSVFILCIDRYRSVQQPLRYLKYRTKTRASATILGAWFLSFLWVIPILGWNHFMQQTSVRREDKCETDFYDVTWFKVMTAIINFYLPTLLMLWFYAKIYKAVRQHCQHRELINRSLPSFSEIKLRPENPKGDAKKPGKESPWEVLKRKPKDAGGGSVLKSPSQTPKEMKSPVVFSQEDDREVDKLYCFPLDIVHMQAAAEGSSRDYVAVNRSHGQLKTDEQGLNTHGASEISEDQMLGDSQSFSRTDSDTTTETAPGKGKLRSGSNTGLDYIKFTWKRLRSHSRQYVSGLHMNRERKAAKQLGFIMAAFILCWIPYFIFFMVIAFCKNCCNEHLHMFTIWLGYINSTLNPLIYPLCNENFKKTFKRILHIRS
serotonin 5-HT2A receptor, sequence (P28223 whole entry): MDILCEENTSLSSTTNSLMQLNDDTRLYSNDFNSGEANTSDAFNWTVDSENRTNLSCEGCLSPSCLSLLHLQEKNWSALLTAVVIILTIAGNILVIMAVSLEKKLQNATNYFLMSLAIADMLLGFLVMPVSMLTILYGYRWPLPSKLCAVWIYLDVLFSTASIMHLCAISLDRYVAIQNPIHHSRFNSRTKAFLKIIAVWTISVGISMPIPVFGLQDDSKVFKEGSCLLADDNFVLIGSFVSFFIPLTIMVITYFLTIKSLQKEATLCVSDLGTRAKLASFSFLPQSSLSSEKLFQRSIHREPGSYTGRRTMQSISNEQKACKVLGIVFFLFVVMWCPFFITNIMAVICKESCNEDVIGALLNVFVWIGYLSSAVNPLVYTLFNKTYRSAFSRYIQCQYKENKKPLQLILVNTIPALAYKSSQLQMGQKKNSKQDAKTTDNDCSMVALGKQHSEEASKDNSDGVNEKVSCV

Take `Cc1c(OCc2cccc(-c3ccc(C(=O)O)cc3)c2)cc2c(c1C)C(=O)C(C1CCCC1)C2` (stereo not shown) [BINA, 3′-(2-Cyclopentyl-6,7-dimethyl-1-oxoindan-5-yloxy-methyl)biphenyl-4-carboxylic acid]: the “Effect on PCP-induced NOR deficits” value in test [1] (BINA alone 30 mg/kg i.p.) is recorded as “did not attenuate the PCP-induced NOR deficits; also recorded: did not improve the PCP-induced deficit in NOR”. Also, in test [1] (setting [5]), the “Acquisition (sec) Left, exploration time” value is 9.8 ± 1.5 s; the “Acquisition (sec) Right, exploration time” value (“Acquisition (sec) Right” below) was determined as 10.7 ± 2.0 s; the “Retention (sec) Familiar, exploration time” value (shortened to “Retention (sec) Familiar”) turned out to be 6.0 ± 1.1 s; the “Retention (sec) Novel, exploration time” value was 7.9 ± 1.0 s.
With `CN1CCN(C2=Nc3cc(Cl)ccc3Nc3ccccc32)CC1` [Clozapine], in test [1] (setting [6]), the “Acquisition (sec) Left, exploration time” value was found to be 12.7 ± 3.5 s; the “Acquisition (sec) Right” value was found to be 10.6 ± 2.1 s; the “Retention (sec) Familiar” value is 9.1 ± 1.9 s; the “Retention (sec) Novel, exploration time” value came to 11.0 ± 2.8 s. Besides, in test [1] (setting [7]), the “Acquisition (sec) Left, exploration time” value was 13.1 ± 2.9 s; the “Acquisition (sec) Right” value came out at 11.4 ± 2.5 s; the “Retention (sec) Familiar” value amounted to 7.3 ± 1.7 s; the “Retention (sec) Novel, exploration time” value came to 16.3 ± 2.8 s. Also, in test [1], the “Effective dose for reversing PCP-induced NOR deficits” value was found to be 0.3 mg/kg and the “Sub-effective dose in PCP-induced NOR deficit” value was 0.1 mg/kg.
Take `N[C@@]1(C(=O)O)CO[C@H]2[C@H](C(=O)O)[C@H]21` [LY379268, (1R,4R,5S,6R)-4-Amino-2-oxabicyclo[3.1.0]hexane-4,6-dicarboxylic acid]: the “Effect on PCP-induced NOR deficits” value in test [1] (LY379268 alone 1 mg/kg i.p.) is recorded as “did not attenuate the PCP-induced NOR deficits; also recorded: did not attenuate the PCP-induced deficit in NOR”. Also, in test [1] (setting [8]), the “Acquisition (sec) Left, exploration time” value is 12.4 ± 2.6 s; the “Acquisition (sec) Right” value amounted to 11.0 ± 4.2 s; the “Retention (sec) Familiar” value stood at 8.3 ± 1.5 s; the “Retention (sec) Novel, exploration time” value is 9.7 ± 2.2 s.
Regarding `N[C@@]1(C(=O)O)CS(=O)(=O)[C@H]2[C@H](C(=O)O)[C@H]21` [LY404039, (−)-(1R,4S,5S,6S)-4-Amino-2-thiabicyclo[3.1.0]hexane-4,6-dicarboxylic acid S,S-dioxide], in test [1] (LY404039 alone 1 mg/kg p.o.), the “Effect on PCP-induced NOR deficits” value is reported as “did not attenuate the PCP-induced NOR deficits; also recorded: did not improve the PCP-induced deficit in NOR”. Also, in test [1] (setting [9]), the “Acquisition (sec) Left, exploration time” value amounted to 9.3 ± 0.8 s; the “Acquisition (sec) Right” value was 8.4 ± 0.9 s; the “Retention (sec) Familiar” value stood at 5.5 ± 1.1 s; the “Retention (sec) Novel, exploration time” value is 7.3 ± 0.8 s.
Consider `O=C1[C@@H]2[C@H]3CC[C@H](C3)[C@@H]2C(=O)N1C[C@@H]1CCCC[C@H]1CN1CCN(c2nsc3ccccc23)CC1` [Lurasidone HCl], for which, in test [1] (setting [10]), the “Acquisition (sec) Left, exploration time” value was found to be 11.4 ± 3.1 s; the “Acquisition (sec) Right” value amounted to 8.3 ± 1.8 s; the “Retention (sec) Familiar” value is 7.6 ± 2.3 s; the “Retention (sec) Novel, exploration time” value stood at 8.9 ± 1.7 s. Besides, in test [1] (setting [11]), the “Acquisition (sec) Left, exploration time” value was 10.9 ± 1.3 s; the “Acquisition (sec) Right” value came out at 10.9 ± 0.8 s; the “Retention (sec) Familiar” value stood at 4.6 ± 1.0 s; the “Retention (sec) Novel, exploration time” value is 11.4 ± 2.2 s. For the same compound, the “Effective dose for reversing PCP-induced NOR deficits” value in test [1] stood at 0.1 mg/kg.
For `O=C1[C@@H]2[C@H]3CC[C@H](C3)[C@@H]2C(=O)N1C[C@@H]1CCCC[C@H]1CN1CCN(c2nsc3ccccc23)CC1` [Lurasidone, (3aR,4S,7R,7aS)-2-{(1R,2R)-2-[4-(1,2-benzisothiazol-3-yl)piperazin-1-ylmethyl]cyclo-hexylmethyl}hexahydro-4,7-methano-2H-isoindole-1,3-dione], in test [1], the “Effective dose for reversing PCP-induced NOR deficits” value is on record as 0.1 mg/kg and the “Sub-effective dose in PCP-induced NOR deficit” value worked out at 0.03 mg/kg. Also, on dopamine D2 receptor, the “Affinity for dopamine D2 receptors” value is given as “high affinity”. In addition, the “Affinity for serotonin 5-HT1A receptors” value in test [2] is “high affinity”. In addition, the “Affinity for serotonin 5-HT2A receptors” value in test [3] is “high affinity”. The “Affinity for serotonin 5-HT7 receptors” value at serotonin 5-HT7 receptor is “high affinity”. In addition, in test [4], the “Affinity for noradrenaline α2C receptors” value was “high affinity”. The “Affinity for histamine H1 receptors” value on histamine H1 receptor is listed as “minimal to no affinity”. Further, on muscarinic M1 receptor, the “Affinity for muscarinic M1 receptors” value is given as “minimal to no affinity”.
